We go through five compounds from paper PMC3983375 (Journal of Medicinal Chemistry, 2014).

Bounds are passed on as bounds.

The target of one data set is DEN1 (Homo sapiens, UniProt Q96LD8). In words: biochemical.
Another data set addresses UCHL1 (Homo sapiens, UniProt P09936). In words: biochemical.
The next data set has as its target caspase 3 (Homo sapiens, UniProt P42574). In words: biochemical.
In the next data set the target is cathepsin K (Homo sapiens, UniProt P43235). In words: biochemical.
The conditions of data set [1]: mouse.
The next data set concerns the target USP2 (Homo sapiens, UniProt O75604). In words: biochemical.
For the next data set, the target named is USP7 (Homo sapiens, UniProt Q93009). In words: biochemical.
Data set [2] relates to SARS-CoV infected Vero E6 cells. Format: cell-based.
The target of a further data set is USP20 (Homo sapiens, UniProt Q9Y2K6). In words: biochemical.
For data set [3], the system named is SARS-CoV infected Vero E6 cells. The conditions noted are these: read-out: EC50 (SARS-CoV antiviral); cited from earlier work.

Chain of UCHL1 (P09936 whole entry): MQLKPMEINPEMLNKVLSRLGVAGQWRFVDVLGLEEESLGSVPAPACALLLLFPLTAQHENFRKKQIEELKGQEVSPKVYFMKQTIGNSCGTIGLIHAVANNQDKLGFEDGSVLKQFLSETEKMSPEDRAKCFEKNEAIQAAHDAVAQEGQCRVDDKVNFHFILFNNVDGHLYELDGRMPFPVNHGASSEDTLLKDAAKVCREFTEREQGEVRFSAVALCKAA
Chain of caspase 3 (P42574 29-175): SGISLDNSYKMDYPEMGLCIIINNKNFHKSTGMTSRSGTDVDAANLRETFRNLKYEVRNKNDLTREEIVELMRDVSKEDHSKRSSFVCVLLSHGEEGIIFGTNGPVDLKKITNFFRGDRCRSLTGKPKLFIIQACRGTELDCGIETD
Chain of caspase 3 (P42574 176-277): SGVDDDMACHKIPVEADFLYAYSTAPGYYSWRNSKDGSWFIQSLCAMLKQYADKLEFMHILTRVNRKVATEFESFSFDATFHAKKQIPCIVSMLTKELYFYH
Chain of USP7 (Q93009 whole entry): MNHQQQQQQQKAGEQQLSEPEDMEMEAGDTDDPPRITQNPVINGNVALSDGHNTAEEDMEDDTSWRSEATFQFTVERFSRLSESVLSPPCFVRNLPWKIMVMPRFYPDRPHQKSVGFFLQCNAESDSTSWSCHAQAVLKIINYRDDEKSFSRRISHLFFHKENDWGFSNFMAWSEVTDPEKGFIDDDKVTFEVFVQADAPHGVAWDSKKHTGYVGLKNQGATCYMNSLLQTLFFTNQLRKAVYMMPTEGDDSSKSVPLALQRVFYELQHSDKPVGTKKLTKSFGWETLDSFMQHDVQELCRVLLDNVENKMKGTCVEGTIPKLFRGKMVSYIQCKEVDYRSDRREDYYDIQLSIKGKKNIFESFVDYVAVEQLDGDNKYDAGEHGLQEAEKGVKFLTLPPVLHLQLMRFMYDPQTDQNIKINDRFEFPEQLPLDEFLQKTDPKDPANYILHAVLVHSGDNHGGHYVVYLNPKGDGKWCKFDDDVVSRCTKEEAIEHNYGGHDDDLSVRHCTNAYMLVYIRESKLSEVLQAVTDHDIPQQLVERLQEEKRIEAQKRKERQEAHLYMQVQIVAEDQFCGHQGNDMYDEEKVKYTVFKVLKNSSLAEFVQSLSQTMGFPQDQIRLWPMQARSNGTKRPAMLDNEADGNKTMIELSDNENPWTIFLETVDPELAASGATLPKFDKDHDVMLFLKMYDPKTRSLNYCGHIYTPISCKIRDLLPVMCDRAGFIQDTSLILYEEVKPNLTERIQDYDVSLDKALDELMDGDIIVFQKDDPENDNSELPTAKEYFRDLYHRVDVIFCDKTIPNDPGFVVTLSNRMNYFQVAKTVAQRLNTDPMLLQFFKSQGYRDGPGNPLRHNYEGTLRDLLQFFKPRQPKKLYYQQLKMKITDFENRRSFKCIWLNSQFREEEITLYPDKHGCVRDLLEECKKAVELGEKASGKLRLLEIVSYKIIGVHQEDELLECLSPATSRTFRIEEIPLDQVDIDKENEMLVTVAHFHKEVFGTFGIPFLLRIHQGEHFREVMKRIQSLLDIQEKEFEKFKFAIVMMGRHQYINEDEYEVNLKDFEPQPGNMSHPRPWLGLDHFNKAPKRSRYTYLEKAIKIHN
Chain of USP2 (O75604 whole entry): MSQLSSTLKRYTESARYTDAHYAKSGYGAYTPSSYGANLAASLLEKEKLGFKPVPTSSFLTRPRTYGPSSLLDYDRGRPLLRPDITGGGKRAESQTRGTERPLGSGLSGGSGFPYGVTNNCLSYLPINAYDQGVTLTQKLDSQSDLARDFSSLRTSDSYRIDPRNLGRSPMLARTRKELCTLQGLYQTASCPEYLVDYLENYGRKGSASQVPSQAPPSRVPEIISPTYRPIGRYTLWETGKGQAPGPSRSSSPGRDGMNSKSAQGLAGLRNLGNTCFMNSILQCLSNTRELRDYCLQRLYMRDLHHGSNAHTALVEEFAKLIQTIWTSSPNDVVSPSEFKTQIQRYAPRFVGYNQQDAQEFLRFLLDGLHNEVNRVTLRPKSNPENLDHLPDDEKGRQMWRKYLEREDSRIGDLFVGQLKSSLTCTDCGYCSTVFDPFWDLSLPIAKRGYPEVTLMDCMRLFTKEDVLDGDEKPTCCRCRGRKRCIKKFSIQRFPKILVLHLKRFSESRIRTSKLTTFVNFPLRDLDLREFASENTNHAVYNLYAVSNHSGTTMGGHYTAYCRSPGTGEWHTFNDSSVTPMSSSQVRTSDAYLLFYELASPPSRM
Chain of DEN1 (Q96LD8 whole entry): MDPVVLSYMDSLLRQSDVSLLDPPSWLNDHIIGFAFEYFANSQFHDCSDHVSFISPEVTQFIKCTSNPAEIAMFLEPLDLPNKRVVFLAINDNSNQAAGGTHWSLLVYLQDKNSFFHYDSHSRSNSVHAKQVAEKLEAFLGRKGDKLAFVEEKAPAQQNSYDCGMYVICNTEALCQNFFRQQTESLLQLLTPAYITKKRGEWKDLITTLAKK
Chain of cathepsin K (P43235 115-329): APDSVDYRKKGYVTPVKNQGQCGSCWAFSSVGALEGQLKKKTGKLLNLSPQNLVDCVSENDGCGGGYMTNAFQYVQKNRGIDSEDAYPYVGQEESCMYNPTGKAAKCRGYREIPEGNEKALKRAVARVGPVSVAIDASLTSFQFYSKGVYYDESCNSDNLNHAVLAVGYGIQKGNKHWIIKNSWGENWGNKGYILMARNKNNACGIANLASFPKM
Chain of USP20 (Q9Y2K6 whole entry): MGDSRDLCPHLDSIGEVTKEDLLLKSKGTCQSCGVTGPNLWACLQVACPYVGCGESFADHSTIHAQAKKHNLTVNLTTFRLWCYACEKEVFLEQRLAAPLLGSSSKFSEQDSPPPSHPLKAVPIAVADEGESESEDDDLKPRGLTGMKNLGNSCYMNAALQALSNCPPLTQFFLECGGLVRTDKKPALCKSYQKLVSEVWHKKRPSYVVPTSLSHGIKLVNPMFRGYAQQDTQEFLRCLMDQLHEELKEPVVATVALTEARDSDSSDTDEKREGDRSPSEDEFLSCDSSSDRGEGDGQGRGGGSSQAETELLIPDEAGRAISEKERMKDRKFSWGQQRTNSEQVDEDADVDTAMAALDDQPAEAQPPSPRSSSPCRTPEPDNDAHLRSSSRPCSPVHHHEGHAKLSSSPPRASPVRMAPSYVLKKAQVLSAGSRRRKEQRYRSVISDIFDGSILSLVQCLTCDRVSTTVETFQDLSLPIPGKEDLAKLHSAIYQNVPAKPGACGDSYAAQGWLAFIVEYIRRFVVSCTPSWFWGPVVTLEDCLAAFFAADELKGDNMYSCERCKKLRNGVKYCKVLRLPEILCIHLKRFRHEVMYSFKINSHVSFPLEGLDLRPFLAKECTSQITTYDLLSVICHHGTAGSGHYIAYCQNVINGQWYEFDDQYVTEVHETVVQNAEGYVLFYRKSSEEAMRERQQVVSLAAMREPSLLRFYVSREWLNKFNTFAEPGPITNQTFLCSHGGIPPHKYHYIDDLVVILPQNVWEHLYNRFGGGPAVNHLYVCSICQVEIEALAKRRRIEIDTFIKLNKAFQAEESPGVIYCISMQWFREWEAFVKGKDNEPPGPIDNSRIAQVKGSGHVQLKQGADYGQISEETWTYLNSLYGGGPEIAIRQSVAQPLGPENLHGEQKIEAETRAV

The IC50 is the point on the concentration scale where inhibition reaches its midpoint. In the case of `CC(=O)Nc1cccc(CNC(=O)C2CCN([C@H](C)c3cccc4ccccc34)CC2)c1` [3e, (R)-N-(3-Acetamidobenzyl)-1-(1-(naphthalen-1-yl)ethyl)piperidine-4-carboxamide], the 50% inhibitory concentration (IC50) against DEN1, on UCHL1, against caspase 3 and on cathepsin K was greater than 100 µM each time. In addition, the “half-life longer than that of 15g” value in [1] was 4-5 fold.

`C[C@H](c1cccc2ccccc12)N1CCC(C(=O)NCc2ccc(F)cc2)CC1` [3j, (R)-N-(4-Fluorobenzyl)-1-(1-(naphthalen-1-yl)ethyl)piperidine-4-carboxamide]: the IC50 at USP2, against USP7, against DEN1, against UCHL1, against caspase 3 and against cathepsin K was greater than 100 µM throughout.

As for `C[C@H](c1cccc2ccccc12)N1CCC(C(=O)NCc2cccc(F)c2)CC1` [3k, (R)-N-(3-Fluorobenzyl)-1-(1-(naphthalen-1-yl)ethyl)piperidine-4-carboxamide], the IC50 on USP2, against USP7, at DEN1, at UCHL1, against caspase 3 and against cathepsin K was greater than 100 µM each time. In data set [2], the “improvement in antiviral activity compared to 15g” value came to 2 fold.

Consider `COc1cc(CNC(=O)C2CCN([C@H](C)c3cccc4ccccc34)CC2)ccn1` [5c, (R)-N-((2-Methoxypyridin-4-yl)methyl)-1-(1-(naphthalen-1-yl)ethyl)piperidine-4-carboxamide], for which the “half-life longer than that of 15g” value in [1] was 4-5 fold.

A word on the EC50: it is the midpoint of the concentration-response curve. Take `C[C@H](c1cccc2ccccc12)N1CCC(C(=O)NCc2ccc3c(c2)OCO3)CC1` [15g, reference compound]: the IC50 on USP2, at USP7, against USP20, against DEN1, against UCHL1 and at caspase 3 was greater than 100 µM in each case. Besides, the IC50 against cathepsin K was greater than 100 µM. Also, in data set [3], the EC50 was 9.1 µM.
